Experimental data: patent publication US10683293B2, “Optionally fused heterocyclyl-substituted derivatives of pyrimidine useful for the treatment of inflammatory, metabolic, oncologic and autoimmune diseases” (NUEVOLUTION A/S, priority 2014, dated 2020)

Target: T1, human RORγt (Ligand Binding Domain) (Homo sapiens, UniProt P51449)
T1 construct: purchased Crelux (Planegg, Germany) batch no PC5032-1
T1 sequence (P51449 269-508 limits assumed): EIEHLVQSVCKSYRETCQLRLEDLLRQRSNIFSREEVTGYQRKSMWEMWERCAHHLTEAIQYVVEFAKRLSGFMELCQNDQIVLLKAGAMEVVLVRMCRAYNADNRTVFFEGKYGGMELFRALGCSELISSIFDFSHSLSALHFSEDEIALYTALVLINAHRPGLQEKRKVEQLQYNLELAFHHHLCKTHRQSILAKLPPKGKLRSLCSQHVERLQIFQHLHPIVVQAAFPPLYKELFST
Assay: Fluorescence Polarization (FP) Assay
Conditions: 100 nM human RORγt LBD, 25 nM TAMRA probe, values are activity range bounds
Method: The activity of the compounds was evaluated using a Fluorescence Polarization (FP) Assay and, RORγ Reporter assay (also referred to as Gal4 assay). The FP assay is an in vitro assay monitoring binding within the ligand binding pocket. The RORγ and the Th17 assays (another suitable assay) are both cell-based assays monitoring functional activity of the compound assayed.
Fluorescence Polarization (FP) Assay
The total volume was 25 μl, in a black Perkin Elmer OptiPlate. As negative control, 1 μl DMSO was used. […] The probe is a fluorescently labeled (TAMRA) RORγt ligand identified by Nuevolution with a total molecular weight of 910 g/mole as shown in Graph A in FIG. 1.

| SMILES | IC50 |
| --- | --- |
| O=S1(=O)CCOC(CNc2ncnc(N(Cc3ccc(C(F)(F)F)cc3)C3CC3)c2F)C1 (centres unmarked) [Example A35, N6-cyclopropyl-N4-[(4,4-dioxo-1,4-oxathian-2-yl)methyl]-5-fluoro-N6-[[4-(trifluoromethyl)phenyl]methyl] pyrimidine-4,6-diamine] | < 500 nM |
| CS(=O)(=O)N1CCC(CNc2ncnc(N(Cc3ccc(C(F)(F)F)cn3)C3CC3)c2F)C1 (centres unmarked) [Example A166, N6-cyclopropyl-5-fluoro-N4-[(1-methylsulfonylpyrrolidin-3-yl)methyl]-N6-[[5-(trifluoromethyl)-2-pyridyl]methyl]pyrimidine-4,6-diamine] | < 10000 nM |
| CN1CCC(NC(=O)CC2(CNc3ncnc(N(Cc4ccc(C(F)(F)F)cc4)C4CC4)c3F)CCOCC2)C1 (centres unmarked) [Example A152, 2-[4-[[[6-[cyclopropyl-[[4-(trifluoromethyl)phenyl]methyl]amino]-5-fluoro-pyrimidin-4-yl]amino]methyl]tetrahydropyran-4-yl]-N-(1-methylpyrrolidin-3-yl)acetamide] | < 10000 nM |
| N#Cc1ccc(CNc2ncnc(N(Cc3ccc(C(F)(F)F)cc3)C3CC3)c2F)cc1 [Example A39, 4-[[[6-[cyclopropyl-[[4-(trifluoromethyl)phenyl]methyl]amino]-5-fluoro-pyrimidin-4-yl]amino]methyl]benzonitrile] | < 500 nM |
| O=C(O)CC1CC(CNc2ncnc(N(Cc3ccc(C(F)(F)F)cc3)C3CC3)c2F)C1 (centres unmarked) [Example A92, 2-[3-[[[6-[cyclopropyl-[[4-(trifluoromethyl)phenyl]methyl]amino]-5-fluoro-pyrimidin-4-yl]amino]methyl]cyclobutyl]acetic acid] | < 10000 nM |
| NC(=O)Cc1ccc(CNc2ncnc(N(Cc3ccc(C(F)(F)F)cn3)C3CC3)c2F)cn1 [Example A113, 2-[5-[[[6-[cyclopropyl-[[5-(trifluoromethyl)-2-pyridyl]methyl]amino]-5-fluoro-pyrimidin-4-yl]amino]methyl]-2-pyridyl]acetamide] | < 10000 nM |
| NC(=O)Cc1ccc(CNc2ncnc(N(Cc3ccc4c(c3)OCC(=O)N4)C3CC3)c2F)cc1 [Example A162, 2-[4-[[[6-[cyclopropyl-[(3-oxo-4H-1,4-benzoxazin-7-yl)methyl]amino]-5-fluoro-pyrimidin-4-yl]amino]methyl]phenyl]acetamide] | < 500 nM |
| CN(Cc1cccc(-n2cccn2)c1)c1ncnc(NCc2ccc(CS(C)(=O)=O)cc2)c1F [Example A144, 5-fluoro-N6-methyl-N4-[[4-(methylsulfonylmethyl)phenyl]methyl]-N6-[(3-pyrazol-1-ylphenyl)methyl]pyrimidine-4,6-diamine] | < 10000 nM |
| O=C(O)CC1(CNc2ncnc(N(Cc3ccc(C(F)(F)F)cc3)C3CC3)c2F)CCS(=O)(=O)CC1 [Example A72, 2-[4-[[[6-[cyclopropyl-[[4-(trifluoromethyl)phenyl]methyl]amino]-5-fluoro-pyrimidin-4-yl]amino]methyl]-1,1-dioxo-thian-4-yl]acetic acid] | < 10000 nM |
| CN(Cc1cccc(OC(F)(F)F)c1)c1ncnc(NCc2ccc(CC(N)=O)cc2)c1F [Example A128, 2-[4-[[[5-fluoro-6-[methyl-[[3-(trifluoromethoxy)phenyl]methyl]amino]pyrimidin-4-yl]amino]methyl]phenyl]acetamide] | < 500 nM |
| O=C(O)C(CNc1ncnc(N(Cc2ccc(C(F)(F)F)cc2)C2CC2)c1F)CC1CCOCC1 (centres unmarked) [Example A185, 2-[[[6-[cyclopropyl-[[4-(trifluoromethyl)phenyl]methyl]amino]-5-fluoro-pyrimidin-4-yl]amino]methyl]-3-tetrahydropyran-4-yl-propanoic acid] | < 10000 nM |
| OCC1(CNc2ncnc(N(Cc3ccc(C(F)(F)F)cc3)C3CC3)c2F)COC1 [Example A26, [3-[[[6-[cyclopropyl-[[4-(trifluoromethyl)phenyl]methyl]amino]-5-fluoro-pyrimidin-4-yl]amino]methyl]oxetan-3-yl]methanol] | < 500 nM |
| O=C(O)C[C@H](Nc1ncnc(N(Cc2ccc(C(F)(F)F)cc2)C2CC2)c1F)c1ccccc1 [Example A182, (3S)-3-[[6-[cyclopropyl-[[4-(trifluoromethyl)phenyl]methyl]amino]-5-fluoro-pyrimidin-4-yl]amino]-3-phenyl-propanoic acid] | < 10000 nM |
| CN(Cc1ccccc1OC(F)(F)F)c1ncnc(NCc2ccc(CC(N)=O)cc2)c1F [Example A122, 2-[4-[[[5-fluoro-6-[methyl-[[2-(trifluoromethoxy)phenyl]methyl]amino]pyrimidin-4-yl]amino]methyl]phenyl]acetamide] | < 500 nM |
| COCCNS(=O)(=O)c1ccc(CNc2ncnc(N(C)Cc3ccc(-n4cccn4)cc3)c2F)cc1 [Example A136, 4-[[[5-fluoro-6-[methyl-[(4-pyrazol-1-ylphenyl)methyl]amino]pyrimidin-4-yl]amino]methyl]-N-(2-methoxyethyl)benzenesulfonamide] | < 2000 nM |
| OC1(CNc2ncnc(N(Cc3ccc(C(F)(F)F)cc3)C3CC3)c2F)CCC(F)(F)CC1 [Example A44, 1-[[[6-[cyclopropyl-[[4-(trifluoromethyl)phenyl]methyl]amino]-5-fluoro-pyrimidin-4-yl]amino]methyl]-4,4-difluoro-cyclohexanol] | < 500 nM |
| CS(=O)(=O)c1ccc(CNc2ncnc(N(Cc3ccc(C(F)(F)F)cn3)C3CC3)c2F)nc1 [Example A115, N4-cyclopropyl-5-fluoro-N6-[(5-methylsulfonyl-2-pyridyl)methyl]-N4-[[5-(trifluoromethyl)-2-pyridyl]methyl]pyrimidine-4,6-diamine] | < 500 nM |
| NC(=O)Cc1ccc(CNc2ncnc(N(Cc3ccc(C(F)(F)F)cc3)C3CC3)c2F)nc1 [Example A177, 2-[6-[[[6-[cyclopropyl-[[4-(trifluoromethyl)phenyl]methyl]amino]-5-fluoro-pyrimidin-4-yl]amino]methyl]-3-pyridyl]acetamide] | < 2000 nM |
| CN(Cc1ccc(-n2cccn2)cc1)c1ncnc(NCc2ccc(-c3nnn[nH]3)cc2)c1F [Example A134, 5-fluoro-N6-methyl-N6-[(4-pyrazol-1-ylphenyl)methyl]-N4-[[4-(1H-tetrazol-5-yl)phenyl]methyl]pyrimidine-4,6-diamine] | < 2000 nM |
| CS(=O)(=O)CC1(CNc2ncnc(N(Cc3ccc(C(F)(F)F)cc3)C3COC3)c2F)CCOCC1 [Example A45, 5-fluoro-N6-[[4-(methylsulfonylmethyl)tetrahydro-pyran-4-yl]methyl]-N4-(oxetan-3-yl)-N4-[[4-(trifluoromethyl)phenyl]methyl] pyrimidine-4,6-diamine] | < 2000 nM |
| OC1(CNc2ncnc(N(Cc3ccc(C(F)(F)F)cc3)C3CC3)c2F)CCSCC1 [Example A30, 4-[[[6-[cyclopropyl-[[4-(trifluoromethyl)phenyl]methyl]amino]-5-fluoro-pyrimidin-4-yl]amino]methyl]tetrahydrothiopyran-4-ol] | < 500 nM |
| Cc1cnc(CNc2ncnc(N(Cc3ccc(C(F)(F)F)cc3)C3CC3)c2F)cn1 [Example A159, N4-cyclopropyl-5-fluoro-N6-[(5-methylpyrazin-2-yl)methyl]-N4-[[4-(trifluoromethyl)phenyl]methyl] pyrimidine-4,6-diamine] | < 500 nM |
| CC(C)(C)OC(=O)NCC(c1ccc(C(F)(F)F)cc1)N(c1ncnc(NCc2ccc(CC(N)=O)cc2)c1F)C1CC1 (centres unmarked) [Example A47, tert-butyl N-[2-[[6-[[4-(2-amino-2-oxo-ethyl)phenyl]methylamino]-5-fluoro-pyrimidin-4-yl]-cyclopropyl-amino]-2-[4-(trifluoromethyl)phenyl]ethyl] carbamate] | < 10000 nM |
| O=C(O)C(CNc1ncnc(N(Cc2ccc(C(F)(F)F)cc2)C2CC2)c1F)C1CCOCC1 (centres unmarked) [Example A184, 3-[[6-[cyclopropyl-[[4-(trifluoromethyl)phenyl]methyl]amino]-5-fluoro-pyrimidin-4-yl]amino]-2-tetrahydropyran-4-yl-propanoic acid] | < 10000 nM |
| CN(Cc1ccc(-n2cccn2)cc1)c1ncnc(NCc2ccc(S(N)(=O)=O)cc2)c1F [Example A135, 4-[[[5-fluoro-6-[methyl-[(4-pyrazol-1-ylphenyl)methyl]amino]pyrimidin-4-yl]amino]methyl]benzenesulfonamide] | < 10000 nM |
| CS(=O)(=O)N1CCC(CNc2ncnc(N(Cc3ccc(C(F)(F)F)cc3)C3CC3)c2F)C1 (centres unmarked) [Example A158, N4-cyclopropyl-5-fluoro-N6-[(1-methylsulfonylpyrrolidin-3-yl)methyl]-N4-[[4-(trifluoromethyl)phenyl]methyl] pyrimidine-4,6-diamine] | < 500 nM |
| Fc1c(NCc2ccc(-c3nnn[nH]3)cc2)ncnc1N(Cc1ccc(C(F)(F)F)cc1)C1CC1 [Example A23, N6-cyclopropyl-5-fluoro-N4-[[4-(1H-tetrazol-5-yl)phenyl]methyl]-N6-[[4-(trifluoromethyl)phenyl]methyl] pyrimidine-4,6-diamine] | < 500 nM |
| Fc1c(NCc2ccccc2)ncnc1N(Cc1ccc(C(F)(F)F)cc1)C1CC1 [Example A40, N6-benzyl-N4-cyclopropyl-5-fluoro-N4-[[4-(trifluoromethyl)phenyl]methyl] pyrimidine-4,6-diamine] | < 1000 nM |
| CN(Cc1cccc(C(F)(F)F)c1)c1ncnc(NCc2ccc(CC(N)=O)cc2)c1F [Example A129, 2-[4-[[[5-fluoro-6-[methyl-[[3-(trifluoromethyl)phenyl]methyl]amino]pyrimidin-4-yl]amino]methyl]phenyl]acetamide] | < 500 nM |
